Experimental data published in PMC7665585, “Antidepressive effect of an inward rectifier K^+ channel blocker peptide, tertiapin-RQ” (PLoS ONE, 2020).
Bridge positions count the residues as written; N and C are the ends. Peptide text beside a SMILES is read from it.

What was measured:
Male ICR mice [1] = experiment: Balance beam test; type: in vivo, mouse; details: i.c.v.; 10 mm and 6 mm beams, central 60 cm
Experimental: We performed mouse behavioral experiments in accordance with our previous study. Male ICR mice (n = 199 in total) aged 5 weeks old were purchased from Shimizu Laboratory Supplies (Kyoto, Japan) and maintained in an animal facility for 7–12 days. They had free access to food and water and were kept in a 12-h light/dark cycle (08:00–20:00). Experiments were carried out between 11:00 and 17:00 in a quiet and air-conditioned experimental room, to which mice were habituated for 30–60 min before each experiment. Animal experiments were performed in accordance with the guidelines of the Physiological Society of Japan and were approved by the Committee for Animal Experiments of Kurashiki University of Science and the Arts. Peptides were dissolved in phosphate-buffered saline (PBS). Peptides were injected intracerebroventricularly (i.c.v.) 30 min before behavioral tests (typically 5 μL/mouse), according to a previous study. The mouse was placed into an anesthetizing jar, to which isoflurane (0.2 mL) was added immediately before. […]
Motor coordination was assessed by measuring the ability to traverse a narrow beam to reach a familiar cage. […] The time required to cross the central 60 cm of the beam was measured.

mouse GIRK1/4 = target: T1, mouse GIRK1/4 (Mus musculus, UniProt P48545+P63250); experiment: Whole-cell patch-clamp of GIRK1/4 in transfected 293T cells; type: cell-based; details: 293T cells transiently expressing mouse GIRK1/4, high K+ Tyrode solution (Fig 7); read-out: IC50, GIRK1/4 conductance
T1 construct: expressed in transfected cells; host or cells: 293T cells, transient calcium phosphate transfection, pCMV6 plasmid
T1 sequence (P63250 1-501): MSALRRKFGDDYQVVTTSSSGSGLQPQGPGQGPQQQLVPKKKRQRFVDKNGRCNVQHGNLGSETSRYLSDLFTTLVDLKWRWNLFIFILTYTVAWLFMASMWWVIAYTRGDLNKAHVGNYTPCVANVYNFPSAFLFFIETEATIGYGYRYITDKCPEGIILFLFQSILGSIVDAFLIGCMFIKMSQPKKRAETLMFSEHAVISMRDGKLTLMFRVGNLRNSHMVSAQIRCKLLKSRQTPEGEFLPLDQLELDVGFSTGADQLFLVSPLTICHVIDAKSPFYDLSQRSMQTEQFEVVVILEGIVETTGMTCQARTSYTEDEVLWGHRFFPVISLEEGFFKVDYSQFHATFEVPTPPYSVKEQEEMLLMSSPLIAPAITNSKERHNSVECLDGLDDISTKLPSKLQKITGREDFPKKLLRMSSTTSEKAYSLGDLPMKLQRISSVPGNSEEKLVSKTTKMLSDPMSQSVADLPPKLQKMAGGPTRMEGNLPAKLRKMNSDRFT
T1 sequence (P48545 1-419): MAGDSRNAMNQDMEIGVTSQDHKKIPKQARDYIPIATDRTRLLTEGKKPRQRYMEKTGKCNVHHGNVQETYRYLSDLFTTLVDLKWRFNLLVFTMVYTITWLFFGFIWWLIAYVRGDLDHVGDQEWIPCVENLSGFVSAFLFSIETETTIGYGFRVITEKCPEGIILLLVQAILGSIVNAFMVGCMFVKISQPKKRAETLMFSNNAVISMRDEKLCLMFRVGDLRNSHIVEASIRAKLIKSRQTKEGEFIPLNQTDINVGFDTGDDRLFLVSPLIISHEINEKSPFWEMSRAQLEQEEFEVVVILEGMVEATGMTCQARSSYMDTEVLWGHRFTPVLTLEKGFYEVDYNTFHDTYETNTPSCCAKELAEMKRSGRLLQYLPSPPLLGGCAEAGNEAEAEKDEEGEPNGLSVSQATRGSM
Text: The cDNAs for rat ROMK and mouse GIRK1, 2, and 4 were generously donated by Drs Mikio Hayashi (Kansai Medical University) and David Weaver (Vanderbilt University). The ROMK channels were stably expressed by a cell line, 208–4, which was transduced with lentiviral vectors coexpressing the channel and green fluorescent protein (GFP) as described previously. The GIRK genes, cloned in a pCMV6 plasmid (Origene Technologies Inc, Rockville, MD), were transiently expressed in 293T cells with calcium phosphate transfection. GIRK channel currents were recorded 24 h after transfection.
Cells grown on small cover glasses (3 × 18 mm) were placed in a recording chamber. Whole-cell currents were recorded in Tyrode solution using an Axopatch 200B amplifier (Axon Instruments, Foster City, CA) at 25°C. Tyrode solution contained (in mM): NaCl 140, KCl 5.4, NaH2PO4 0.33, CaCl2 2, MgCl2 1, HEPES 5, and glucose 5.5 (pH 7.4 adjusted with NaOH). […] Whole-cell currents were recorded 60 sec after the peptide application and those from 100 to 300 msec of the step pulses were averaged. […] Whole-cell conductance was calculated as the slope of the current-voltage (I-V) relationship from -140 mV to -100 mV and normalized to the initial value (0 μM TPN), in which BaCl2-resistant current was subtracted and indicted as a percentage.

Male ICR mice [2] = experiment: Open field test (OFT); type: in vivo, mouse; details: i.c.v., 5 min
Experimental: We performed mouse behavioral experiments in accordance with our previous study. Male ICR mice (n = 199 in total) aged 5 weeks old were purchased from Shimizu Laboratory Supplies (Kyoto, Japan) and maintained in an animal facility for 7–12 days. They had free access to food and water and were kept in a 12-h light/dark cycle (08:00–20:00). Experiments were carried out between 11:00 and 17:00 in a quiet and air-conditioned experimental room, to which mice were habituated for 30–60 min before each experiment. Animal experiments were performed in accordance with the guidelines of the Physiological Society of Japan and were approved by the Committee for Animal Experiments of Kurashiki University of Science and the Arts. Peptides were dissolved in phosphate-buffered saline (PBS). Peptides were injected intracerebroventricularly (i.c.v.) 30 min before behavioral tests (typically 5 μL/mouse), according to a previous study. The mouse was placed into an anesthetizing jar, to which isoflurane (0.2 mL) was added immediately before. After confirming that the mouse was deeply anesthetized we injected the peptide into the right cerebral ventricle over 30 seconds and the injection needle was kept for 1 min after the injection (i.c.v. coordinates: 0 mm caudal to bregma, 1.0 mm lateral to the midline, and 3.5 mm below the skull). The mouse was placed in a cage set on a heating pad (approximately 33°C) for a few minutes until it spontaneously started to move, and then it was put back into its home cage. Each animal was used only once, except for the wheel running test, which was carried out immediately after the elevated plus-maze.
The open-field test (OFT) was performed in accordance with a previous report. The open-field consisted of a square (90 × 90 cm), in which the floor was divided into 16 equal squares. After a mouse was placed in a corner of the open field facing the wall, the number of the entries into the central squares and whole line crossings were counted for 5 min. After the removal of the animal, the apparatus was cleaned and wiped.

SMILES | time required to cross the beam (Male ICR mice [1]) | IC50 (mouse GIRK1/4) [nM] | entries to the central area in OFT (Male ICR mice [2]) | number of total line crossings in OFT (Male ICR mice [2]) | central line crossings in OFT (Male ICR mice [2]; n = 6 and 7)
CC[C@H](C)[C@@H]1NC(=O)[C@H](CCCNC(=N)N)NC(=O)[C@H](CCCNC(=N)N)NC(=O)[C@H](CC(N)=O)NC(=O)[C@@H]2CSSC[C@@H](C(=O)NCC(=O)N[C@@H](CCCCN)C(=O)N[C@@H](CCCCN)C(N)=O)NC(=O)[C@H](CCCCN)NC(=O)[C@H](CCCCN)NC(=O)[C@H](Cc3c[nH]c4ccccc34)NC(=O)[C@H](CSSC[C@H](NC(=O)[C@H](CC(C)C)NC(=O)[C@H](C)N)C(=O)N[C@@H](CC(N)=O)C(=O)N2)NC(=O)[C@H](CCC(N)=O)NC(=O)[C@H](Cc2c[nH]cn2)NC(=O)[C@@H]2CCCN2C(=O)[C@H]([C@@H](C)CC)NC1=O [Peptide 2, TPN-RQ] (H-ALCNCNRRIIPHQCWKKCGKK-NH2; disulfide 3-14, 5-18) | longer | 1250 |  |  | 
CC[C@H](C)[C@@H]1NC(=O)[C@H](CCCNC(=N)N)NC(=O)[C@H](CC(N)=O)NC(=O)[C@@H]2CSSC[C@@H](C(=O)NCC(=O)N[C@@H](CCCCN)C(=O)N[C@@H](CCCCN)C(N)=O)NC(=O)[C@H](CCCCN)NC(=O)[C@H](CCCCN)NC(=O)[C@H](Cc3c[nH]c4ccccc34)NC(=O)[C@H](CSSC[C@H](NC(=O)[C@H](CC(C)C)NC(=O)[C@H](C)N)C(=O)N[C@@H](CC(N)=O)C(=O)N2)NC(=O)[C@H](CCC(N)=O)NC(=O)[C@H](CC(C)C)NC(=O)[C@@H]2CCCN2C(=O)[C@H]([C@@H](C)CC)NC(=O)[C@H]([C@@H](C)CC)NC1=O [Peptide 3, TPN-LQ] (H-ALCNCNRIIIPLQCWKKCGKK-NH2; disulfide 3-14, 5-18; N-terminus and C-terminus assumed) |  |  | decreased | decreased | decreased
